# Values joined by “and” are separate entries in the source; they are usually repeats but may differ in a detail not shown here. Identical values can stand only once. Inconclusive results and toxic doses are left out.
# Tested on: L1210 leukemia ip in BDF1 mice, survival T/C
# Test: NCI In Vivo Anticancer Drug Screen. Data for tumor model L1210 Leukemia (intraperitoneal) in B6D2F1 (BDF1) mice
# Conditions: endpoint: mean survival time, higher = longer survival
# Outline: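 Ratio derived from survival: compound-dosed mice over vehicle-dosed mice, all bearing a transplantable tumor.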
# [1] = dose: 100.0 mg/kg/injection, schedule: Q01DX001 (ip), vehicle: Klucel (hydroxypropylcellulose) (HPC)
# [2] = dose: 200.0 mg/kg/injection, schedule: Q01DX001 (ip), vehicle: Klucel (hydroxypropylcellulose) (HPC)
# [3] = dose: 400.0 mg/kg/injection, schedule: Q01DX001 (ip), vehicle: Klucel (hydroxypropylcellulose) (HPC)
# [4] = dose: 100.0 mg/kg/injection, schedule: Q04DX003 (ip), vehicle: saline
# [5] = dose: 200.0 mg/kg/injection, schedule: Q04DX003 (ip), vehicle: saline
# [6] = dose: 400.0 mg/kg/injection, schedule: Q04DX003 (ip), vehicle: saline
# [7] = dose: 100.0 mg/kg/injection, schedule: Q04DX002 (ip), vehicle: Klucel (hydroxypropylcellulose) (HPC)
# [8] = dose: 200.0 mg/kg/injection, schedule: Q04DX002 (ip), vehicle: Klucel (hydroxypropylcellulose) (HPC)
smiles,measurement,setting,value
Nc1ncnc2c1ncn2C(C=O)OC(C=O)CO (configuration not stated),T/C,"dose: 4.37 mg/kg/injection, schedule: Q01DX009 (ip), vehicle: water",123 % of control
same,T/C,"dose: 4.37 mg/kg/injection, schedule: Q01DX Z (ip), vehicle: water",123 % of control
same,T/C,"dose: 8.75 mg/kg/injection, schedule: Q01DX Z (ip), vehicle: water",157 % of control
same,T/C,"dose: 8.8 mg/kg/injection, schedule: Q01DX Z (ip), vehicle: carboxymethylcellulose (CMC)",115 % of control
same,T/C,"dose: 13.3 mg/kg/injection, schedule: Q01DX Z (ip), vehicle: carboxymethylcellulose (CMC)",121 % of control
same,T/C,"dose: 17.5 mg/kg/injection, schedule: Q01DX009 (ip), vehicle: water",172 % of control
same,T/C,"dose: 17.5 mg/kg/injection, schedule: Q01DX Z (ip), vehicle: water",172 % of control
same,T/C,"dose: 30.0 mg/kg/injection, schedule: Q01DX Z (ip), vehicle: carboxymethylcellulose (CMC)",116 % of control
same,T/C,"dose: 35.0 mg/kg/injection, schedule: Q01DX Z (ip), vehicle: water",92 % of control
same,T/C,"dose: 42.0 mg/kg/injection, schedule: Q01DX Z (oral), vehicle: carboxymethylcellulose (CMC)",115 % of control
same,T/C,"dose: 45.0 mg/kg/injection, schedule: Q01DX Z (ip), vehicle: carboxymethylcellulose (CMC)",100 % of control and 101 % of control
same,T/C,"dose: 64.0 mg/kg/injection, schedule: Q01DX Z (oral), vehicle: carboxymethylcellulose (CMC)",107 % of control
same,T/C,"dose: 68.0 mg/kg/injection, schedule: Q01DX Z (ip), vehicle: carboxymethylcellulose (CMC)",105 % of control and 121 % of control
same,T/C,"dose: 79.0 mg/kg/injection, schedule: Q01DX009 (oral), vehicle: saline",109 % of control
same,T/C,"dose: 96.0 mg/kg/injection, schedule: Q01DX Z (oral), vehicle: carboxymethylcellulose (CMC)",109 % of control
same,T/C,"dose: 119.0 mg/kg/injection, schedule: Q01DX009 (oral), vehicle: saline",109 % of control
same,T/C,"dose: 144.0 mg/kg/injection, schedule: Q01DX Z (oral), vehicle: carboxymethylcellulose (CMC)",96 % of control
same,T/C,"dose: 178.0 mg/kg/injection, schedule: Q01DX009 (oral), vehicle: saline",112 % of control
O=C(O)C1C2C=CC(C2)C1C(F)(F)C(F)(F)C(F)(F)F (configuration not stated),T/C,[1],102 % of control
same,T/C,[2],102 % of control
same,T/C,[3],93 % of control
CN1CCC=C(C(C)(C)O)C1,T/C,[4],101 % of control
same,T/C,[5],100 % of control
same,T/C,[6],106 % of control
NC(=S)c1cccc(S(=O)(=O)Nc2ccccc2)c1,T/C,[1],103 % of control
same,T/C,[2],105 % of control
same,T/C,[3],101 % of control
O/N=C1\c2ccccc2-c2cc(Cl)ccc21,T/C,"dose: 100.0 mg/kg/injection, schedule: Q01DX001 (ip), vehicle: carboxymethylcellulose (CMC)",94 % of control
same,T/C,"dose: 200.0 mg/kg/injection, schedule: Q01DX001 (ip), vehicle: carboxymethylcellulose (CMC)",109 % of control
same,T/C,"dose: 400.0 mg/kg/injection, schedule: Q01DX001 (ip), vehicle: carboxymethylcellulose (CMC)",103 % of control
CCCCC(=O)N1C(=O)Cc2ccccc21,T/C,"dose: 50.0 mg/kg/injection, schedule: Q04DX002 (ip), vehicle: Klucel (hydroxypropylcellulose) (HPC)",97 % of control
same,T/C,[7],97 % of control
same,T/C,[8],97 % of control
NNC(=O)CNc1ccc(Br)cc1,T/C,[7],112 % of control
same,T/C,[8],106 % of control
COc1ccc(/C=N\NC(=O)CNC(=O)Nc2cccc(Cl)c2)cc1OC,T/C,"dose: 50.0 mg/kg/injection, schedule: Q01DX009 (ip), vehicle: saline with Tween-80",88 % of control
same,T/C,"dose: 100.0 mg/kg/injection, schedule: Q01DX009 (ip), vehicle: saline with Tween-80",92 % of control
same,T/C,"dose: 200.0 mg/kg/injection, schedule: Q01DX009 (ip), vehicle: saline with Tween-80",88 % of control
Cc1ccccc1NC(=O)Nc1ccc(Nc2ccccc2)cc1,T/C,"dose: 100.0 mg/kg/injection, schedule: Q01DX009 (ip), vehicle: Klucel (hydroxypropylcellulose) (HPC)",97 % of control
same,T/C,"dose: 200.0 mg/kg/injection, schedule: Q01DX009 (ip), vehicle: Klucel (hydroxypropylcellulose) (HPC)",91 % of control
same,T/C,"dose: 400.0 mg/kg/injection, schedule: Q01DX009 (ip), vehicle: Klucel (hydroxypropylcellulose) (HPC)",100 % of control
O=C(O)C1C2CCC(C2)C1C(=O)O (configuration not stated),T/C,"dose: 100.0 mg/kg/injection, schedule: Q04DX003 (ip), vehicle: saline with Tween-80",90 % of control
same,T/C,[4],100 % of control
same,T/C,"dose: 200.0 mg/kg/injection, schedule: Q04DX003 (ip), vehicle: saline with Tween-80",98 % of control
same,T/C,[5],100 % of control
same,T/C,"dose: 400.0 mg/kg/injection, schedule: Q04DX003 (ip), vehicle: saline with Tween-80",102 % of control
same,T/C,[6],105 % of control

# — PubChem BioAssay AID248 (DTP/NCI, 2004)
